Measurements published in article PMC8868332, “Creating Robust Antimicrobial Materials with Sticky Tyrocidines” (Antibiotics, 2022).
Where no end group is shown, it is not given here.

How the values were obtained:
[1] = test system: E. coli; settings: cited from earlier work
Description: Table 2 Summary of the compounds used to compare with the Trc in creating robust non-covalent antimicrobial materials. | column: Minimum Inhibitory Concentration (μg/mL) / E. coli

[2] = test system: Escherichia coli K12; assay: Resazurin assay of surface activity of peptide-treated cellulose; assay type: cell-based; settings: cellulose filters, 5.0 µg compound offered per 0.28 cm^2; normalised to untreated cellulose; Figure 6B, three biological and four technical repeats
Method: (§1) An aqueous solution of antimicrobial compound (100 µL of 50.0 µg/mL; 5% v/v acetonitrile) was incubated for two hours with the base material punch (0.28 cm^2), ensuring that 5.0 µg of compound was available for binding. Following the incubation, the antimicrobial compound solution was removed, and the samples washed twice with 100 µL sterile analytical quality water and dried in a 40 °C oven for 2 h. Treatment conditions were chosen to imitate large scale treatment/creation of packaging materials, such as aqueous solutions, followed by a drying step.
The antimicrobial activity of the Trc-containing materials and films were determined by a developed resazurin assay. Listeria monocytogenes B73 was streaked out from freezer stocks onto BHI agar plates (Brain Heart Infusion; 1.5% m/v agar) and incubated for 48 h at 37 °C until colonies were viable. Escherichia coli K12 was streaked out from freezer stocks onto LB plates (1% m/v NaCl, 1% m/v tryptone, 0.5% m/v yeast extract, 1.5% m/v agar in water) and incubated at 37 °C for 24 h. Starter cultures were prepared, by inoculating 1 mL medium with 3–5 colonies and growing the cells overnight at 37 °C at an angle, shaking at 150 RPM. […] This culture was then pipetted (10 µL) onto the treated and untreated materials in a 96-well assay plate and incubated for one hour at 37 °C. Following the incubation, 90 µL PBS (phosphate buffered saline; 0.8% m/v NaCl, 0.04% m/v KCl, 0.144% m/v Na2HPO4, 0.02% m/v KH2PO4; pH 7.4), and 10 µL resazurin dye (0.3 mg/mL in PBS) was added, followed by a further incubation at 37 °C. The conversion of the resazurin was measured at Ex530 and Em590 after 30 min for L. monocytogenes and 90 min for E. coli using the Tecan Spark 10 M Multimode Microplate Reader and controlled by the Spark Control^TM software, both provided by Tecan Group Ltd. (Mennedorf, Switzerland). […] The activity of the material was determined in terms of percentage inhibition by using the acquired fluorescence readings (F), with the following Equation: (1) %Inhibition of Target organism=100−(F of well−F of average blank)×100/(F of growth control−F of average blank).

[3] = general character summarised in Table 2; no reference given; cited from earlier work
Description: Table 2 Summary of the compounds used to compare with the Trc in creating robust non-covalent antimicrobial materials. | column: Character

[4] = test system: L. monocytogenes; settings: cited from earlier work
Description: Table 2 Summary of the compounds used to compare with the Trc in creating robust non-covalent antimicrobial materials. | column: Minimum Inhibitory Concentration (μg/mL) / L. monocytogenes

[5] = test system: Listeria monocytogenes B73; assay: Resazurin assay of surface activity of peptide-treated materials; assay type: cell-based; settings: cellulose filters, 5.0 µg compound offered per 0.28 cm^2; normalised to untreated cellulose; Figure 6A, three biological and four technical repeats
Method: as §1
The antimicrobial activity of the Trc-containing materials and films were determined by a developed resazurin assay. […] The conversion of the resazurin was measured at Ex530 and Em590 after 30 min for L. monocytogenes and 90 min for E. coli using the Tecan Spark 10 M Multimode Microplate Reader and controlled by the Spark Control^TM software, both provided by Tecan Group Ltd. (Mennedorf, Switzerland). […] The activity of the material was determined in terms of percentage inhibition by using the acquired fluorescence readings (F), with the following Equation: (1) %Inhibition of Target organism=100−(F of well−F of average blank)×100/(F of growth control−F of average blank).

| Molecule | Minimum Inhibitory Concentration E. coli [1] | % Inhibition of E. coli by peptide-treated cellulose [2] | Haemolytic character (Character) [3] | Solubility (Character) [3] | Minimum Inhibitory Concentration L. monocytogenes [4] | % Inhibition of L. monocytogenes by peptide-treated cellulose [5] |
| --- | --- | --- | --- | --- | --- | --- |
| Magainin 2 | 10–50 [85] μg/mL | “negative” inhibition |  |  |  |  |
| Leucocin A (KYYGNGVHCTKSGCSVNWGEAFSAGVHRLANGGNGFW; ends and bridges not checked; cysteine pairing not given here; UniProt P34034 25-61, looked up) [37-mer cationic, amphipathic disulphide-bonded bacteriocin from Leuconostoc gelidum UAL187] |  | low levels of inhibition | non-haemolytic | water-soluble | 0.98–1.98 [87] μg/mL |  |
| Melittin | 15–42.5 [89, 90] μg/mL | low levels of inhibition | haemolytic | water-soluble | 0.315 ± 0.008 [88] μg/mL |  |
| gramicidin S [GS] | 3–12.5 [84] μg/mL | full inhibition |  |  | 11 ± 0.20 [34] μg/mL | 100% |
| PGLa | 10–50 [86] μg/mL | “negative” inhibition |  |  |  |  |
| CNC(C)C1CCC(N)C(OC2C(N)CC(N)C(OC3OCC(C)(O)C(NC)C3O)C2O)O1 (stereo not drawn) [Gentamicin] |  |  |  |  | 0.5–4.0 [91, 92] μg/mL |  |
